Assay results published in the METLIN SMRT retention time set (Domingo-Almenara et al. 2019).

Experiment: gradient 5% acetonitrile 3 min, to 50% in 2 min, to 85% in 15 min, held 3 min, 100 µL/min
Settings: column: Zorbax Extend-C18 2.1 x 50 mm; eluents: water / acetonitrile, 0.1% formic acid
How it was run: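 The system's dead and dwell volumes were 40 μL and 900 μL, with a Zorbax Extend-C18 column (2.1 × 50 mm, 1.8 μm) run at 100 μL/min in water and acetonitrile containing 0.1% formic acid each. Pure standards were analyzed in mixtures of ~100 molecules by HPLC–quadrupole time-of-flight mass spectrometry in positive and negative ionization mode. Retention time was assigned from computationally picked, manually inspected adduct peaks.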

Row | Structure (SMILES) | RP-LC retention time [s]
1 | Cc1cccc(Sc2nccnc2N2CCC(C(=O)N3CCCCCC3)CC2)c1 | 1130
2 | O=S(=O)(c1ccc(F)cc1)N1CCC(n2cnnc2-c2ccccc2)CC1 | 774
3 | O=C(NCc1ccc(F)c(Cl)c1)C1CCCN(c2cnc3nccnc3c2)C1 (configuration not stated) | 757
4 | Cc1cc(S(=O)(=O)N2CCC(n3c(-c4ccoc4)nc4cccnc43)C2)ccc1F (configuration not stated) | 827
5 | CCN(CC)CCNS(=O)(=O)c1cc(-c2[nH]ncc2C(=O)N2CCCC2)oc1C | 565
6 | Cc1cccc(-c2noc(-c3nn(-c4cccc(F)c4)ccc3=O)n2)c1 | 928
7 | Cc1nc2ccccc2c(=O)n1Cc1noc(-c2ccccc2Br)n1 | 871
8 | CNC(=O)c1cc(C(C)(C)C)[nH]n1 | 618
9 | CC(C)c1ccc(-n2nc(N3CCN(C(=O)Cc4cccs4)CC3)ccc2=O)cc1 | 898
10 | O=C(O)C1CCCN(c2cc(-n3ccnc3)ncn2)C1 (configuration not stated) | 537
11 | O=C(c1cnccn1)N1CCC(c2noc(C3CC3)n2)C1 (configuration not stated) | 646
12 | O=C(NCCc1cccs1)C1CCN(C(=O)c2ncn3c2COC(c2ccc(F)cc2)C3)CC1 (configuration not stated) | 774
13 | COc1ccc(N2CCN(C(=O)c3cc4cc5cc(OC)ccc5nc4o3)CC2)cc1 | 829
14 | O=C(c1ccc(-c2cccnc2)nc1)N1CCN(c2ccccc2Cl)CC1 | 764
15 | Cc1nc(-c2ccc3c(c2)CCN3C(=O)c2cccc(F)c2)cs1 | 992
16 | COc1cccc(-c2nc(Cn3ccnc3)no2)c1 | 601

More lines, now with the values ahead:

Row | RP-LC retention time [s] | Structure (SMILES)
17 | 663 | CCN(CC)S(=O)(=O)c1ccc2c(c1)CC(C(=O)N1CCOCC1)N2C(C)=O (configuration not stated)
18 | 1160 | CCC1CCCCN1C(=O)Cc1c(C)nc2nc(-c3ccc(C(C)(C)C)cc3)nn2c1C (configuration not stated)
19 | 770 | CCCN1C(=O)C2CCC(=O)N2c2ccc(C(=O)Nc3ccc4c(c3)OCCO4)cc21 (configuration not stated)
20 | 1130 | COC(=O)c1ccccc1NC(=O)CSc1cc(-n2nc(C)cc2C)ncn1
21 | 1010 | CC1=NS(=O)(=O)N(C)C=C1C(=O)OCc1nc(-c2cccc(Cl)c2)no1
22 | 658 | COc1ccc(-c2nc(C)cc(C)c2CNS(=O)(=O)c2ccccc2C)cc1
23 | 648 | CCN(CC)C(=O)c1ccc2c(c1)N(C(=O)NC)CC2
24 | 622 | Cc1ccc2oc(-c3nnc(C(=O)NCCCN4CCN(C)CC4)o3)c(C)c2c1
25 | 720 | COC(=O)c1c(C)[nH]c(C(=O)N2CCCC(C(=O)NCc3ccc4c(c3)OCO4)C2)c1C (configuration not stated)
26 | 882 | Cc1ccc2[nH]cc(CCN3CC(C(=O)Nc4ccc(Cl)cc4)CC3=O)c2c1 (configuration not stated)
27 | 973 | CCn1nc(-c2ccccc2)c(-c2ccccc2)c(C(=O)OC)c1=O
28 | 1070 | COc1ccc(NC(=O)c2cc3c(=O)n(CC(C)C)c4ccccc4n3n2)cc1F
29 | 657 | COC(=O)c1ccc(Cl)cc1NC(=O)N1CCN(CCn2c(C)nc3cccnc32)CC1
30 | 844 | COc1cc(C)c(C)cc1S(=O)(=O)Nc1ccc2c(c1)N(S(C)(=O)=O)CCC2
31 | 605 | Cc1ccc(CNC(=O)c2cc3n(n2)CC(C)(C(=O)NC2CCCCC2)N(C)C3=O)cc1 (configuration not stated)
32 | 627 | Cc1ccc(NC(=O)CCC(=O)O)c(C)c1
33 | 1210 | Cn1c(C(=O)NC2CCCCC2)cc2c(-c3cccs3)nn(-c3ccccc3)c21
34 | 615 | Cn1cc(CN2C[C@@H](CO)[C@H](NC(=O)C3CCC3)C2)c2ccccc21
35 | 625 | Cc1ccc(C(=O)N2CCc3[nH]nc(C(=O)N(C)C)c3C2)cc1F
36 | 750 | CCOc1ccc(CNC(=O)CC2CCN(C(=O)c3[nH]c(C)c(C(=O)OC)c3C)CC2)cc1
37 | 742 | Cc1ccc(CC(=O)NCc2c(C)noc2C)cc1
